Laboratory results from ChEMBL document CHEMBL4651402, “Screening of ~5500 FDA-approved drugs and clinical candidates for anti-SARS-CoV-2 activity” (2021).

System: SARS-CoV-2
Experiment: microbe, parasite or virus in culture
Details: Severe acute respiratory syndrome coronavirus 2, Vero C1008, 48 h

SMILES	IC50 [µM]	IC50 (read-out: pIC50 (converted)) [µM]
COc1cc(-c2ccc(/N=N/c3ccc4c(S(=O)(=O)O)cc(S(=O)(=O)O)c(N)c4c3O)c(OC)c2)ccc1/N=N/c1ccc2c(S(=O)(=O)O)cc(S(=O)(=O)O)c(N)c2c1O [CHICAGO SKY BLUE]	> 20	> 20
OC[C@@H](O)[C@H]1O[C@@H]2O[C@H](C(Cl)(Cl)Cl)O[C@@H]2[C@H]1O [CHLORALOSE]	> 20	> 20
O=C(O)CCCc1ccc(N(CCCl)CCCl)cc1 [CHLORAMBUCIL]	> 20	> 20
O=C1C(Cl)=C(Cl)C(=O)C(Cl)=C1Cl [CHLORANIL]	> 20	> 20
CN1CCN(C(c2ccccc2)c2ccc(Cl)cc2)CC1 (stereo not given) [CHLORCYCLIZINE]	> 20	> 20
CCCCC(CC)C1NC(=O)N(SC(Cl)(Cl)Cl)C1=O (stereo not given) [CHLORDANTOIN]	> 20	> 20
CNC1=Nc2ccc(Cl)cc2C(c2ccccc2)=[N+]([O-])C1 [CHLORDIAZEPOXIDE]	> 20	> 20
N=C(NCCCCCCNC(=N)NC(=N)Nc1ccc(Cl)cc1)NC(=N)Nc1ccc(Cl)cc1 [CHLORHEXIDINE]	> 20	> 20
Oc1ccc(Cl)c2c1CCC2 [CHLORINDANOL]	> 20	> 20
C[N+](C)(C)CC[N+]1(C)Cc2c(Cl)c(Cl)c(Cl)c(Cl)c2C1 [CHLORISONDAMINE]	> 20	> 20
CC(=O)O[C@]1(C(C)=O)CC[C@H]2[C@@H]3C=C(Cl)C4=CC(=O)CC[C@]4(C)[C@H]3CC[C@@]21C [CHLORMADINONE ACETATE]	> 20	> 20
CN1C(=O)CCS(=O)(=O)C1c1ccc(Cl)cc1 (stereo not given) [CHLORMEZANONE]	> 20	> 20
Cc1nc2ccccc2n1Cc1ccc(Cl)cc1 [CHLORMIDAZOLE]	> 20	> 20
Cc1cc(O)ccc1Cl [CHLOROCRESOL]	> 20	> 20
O=C(/C=C/c1ccc(O)c(O)c1)O[C@@H]1C[C@](O)(C(=O)O)C[C@@H](O)[C@H]1O [CHLOROGENIC ACID]	> 20	> 20
Clc1cccc(N2CCNCC2)c1 [CHLOROPHENYLPIPERAZINE]	> 20	> 20
CN(C)CCN(Cc1ccc(Cl)cc1)c1ccccn1 [CHLOROPYRAMINE]	> 20	> 20
N#Cc1c(Cl)c(Cl)c(Cl)c(C#N)c1Cl [CHLOROTHALONIL]	> 20	> 20
CN(C)CCN(Cc1ccc(Cl)s1)c1ccccn1 [CHLOROTHEN]	> 20	> 20
NS(=O)(=O)c1cc2c(cc1Cl)N=CNS2(=O)=O [CHLOROTHIAZIDE]	> 20	> 20
COc1ccc(C(Cl)=C(c2ccc(OC)cc2)c2ccc(OC)cc2)cc1 [CHLOROTRIANISENE]	> 20	> 20
Oc1c(Cl)cc(Cl)c2cccnc12 [CHLOROXINE]	> 20	> 20

SMILES	IC50 [µM]	IC50 (read-out: pIC50 (converted)) [µM]
Cc1cc(O)cc(C)c1Cl [CHLOROXYLENOL]	> 20	> 20
NC(=O)OCC(O)COc1ccc(Cl)cc1 (stereo not given) [CHLORPHENESIN CARBAMATE]	> 20	> 20
CN(C)CCC(c1ccc(Cl)cc1)c1ccccn1 (stereo not given) [CHLORPHENIRAMINE]	> 20	> 20
CC(C)(N)Cc1ccc(Cl)cc1 [CHLORPHENTERMINE]	> 20	> 20
CN(C)CCCN1c2ccccc2Sc2ccc(Cl)cc21 [CHLORPROMAZINE]	> 20	> 20
CCCNC(=O)NS(=O)(=O)c1ccc(Cl)cc1 [CHLORPROPAMIDE]	> 20	> 20
Cc1ccc2c(Cl)cc(Cl)c(O)c2n1 [CHLORQUINALDOL]	> 20	> 20
NS(=O)(=O)c1cc(C2(O)NC(=O)c3ccccc32)ccc1Cl (stereo not given) [CHLORTHALIDONE]	> 20	> 20
O=C(O)c1cc(=O)c2ccccc2o1 [CHROMOCARB]	> 20	> 20
CCOC(=O)COc1ccc2c(C)c(CCN(CC)CC)c(=O)oc2c1 [CHROMONAR]	> 20	> 20
CC(C)=CC1C(CO)C1(C)C (stereo not given) [CHRYSANTHEMYL ALCOHOL]	> 20	> 20
COc1cc(OC)c2c(=O)cc(-c3ccccc3)oc2c1 [CHRYSIN DIMETHYL ETHER]	> 20	> 20
O=c1cc(-c2ccccc2)oc2cc(O)cc(O)c12 [CHRYSIN]	> 20	> 20
N#CN=C(NCCCCCCOc1ccc(Cl)cc1)Nc1ccncc1 [CHS-828]	> 20	> 20
O=C(NOCC1CC1)c1ccc(F)c(F)c1Nc1ccc(I)cc1Cl [CI-1040]	> 20	> 20
Oc1cc(O)c2c(c1)O[C@H](c1ccc(O)c(O)c1)[C@@H](O)C2 [CIANIDANOL]	> 20	> 20
CN(C)CCCN1c2ccccc2CCc2ccc(C#N)cc21 [CIANOPRAMINE]	> 20	> 20
Cc1cc(C2CCCCC2)n(O)c(=O)c1 [CICLOPIROX]	> 20	> 20
CC(C(=O)O)c1ccc2c(c1)Cc1ccccc1-2 (stereo not given) [CICLOPROFEN]	> 20	> 20
CC1(COc2ccc(CC3SC(=O)NC3=O)cc2)CCCCC1 (stereo not given) [CIGLITAZONE]	> 20	> 20
CC1(C)C[C@@H]1C(=O)N/C(=C\CCCCSC[C@H](N)C(=O)O)C(=O)O [CILASTATIN]	> 20	> 20
CCOC(=O)[C@H](CCc1ccccc1)N[C@H]1CCCN2CCC[C@@H](C(=O)O)N2C1=O [CILAZAPRIL]	> 20	> 20

SMILES	IC50 [µM]	IC50 (read-out: pIC50 (converted)) [µM]
COCCOC(=O)C1=C(C)NC(C)=C(C(=O)OC/C=C/c2ccccc2)C1c1cccc([N+](=O)[O-])c1 (stereo not given) [CILNIDIPINE]	> 20	> 20
COc1ccc([C@]2(C#N)CC[C@@H](C(=O)O)CC2)cc1OC1CCCC1 [CILOMILAST]	> 20	> 20
CN(C(=O)CCCOc1ccc2[nH]c(=O)ccc2c1)C1CCCCC1 [CILOSTAMIDE]	> 20	> 20
O=C1CCc2cc(OCCCCc3nnnn3C3CCCCC3)ccc2N1 [CILOSTAZOL]	> 20	> 20
CN/C(=N\CCSCc1nc[nH]c1C)NC#N [CIMETIDINE]	> 20	> 20
CN(C)CCCSc1ccccc1NC(=O)/C=C/c1ccccc1 [CINANSERIN]	> 20	> 20
C=C[C@H]1CN2CC[C@H]1C[C@H]2[C@H](O)c1ccnc2ccccc12 [CINCHONIDINE]	> 20	> 20
O=C(O)c1cc(-c2ccccc2)nc2ccccc12 [CINCHOPHEN]	> 20	> 20
COc1cc(/C=C/C(=O)N2CCN(CC(=O)N3CCCC3)CC2)cc(OC)c1OC [CINEPAZIDE]	> 20	> 20
CCOc1cc(N)c([N+](=O)[O-])cc1C(=O)NC1CCN(CC2CC=CCC2)CC1 (stereo not given) [CINITAPRIDE]	> 20	> 20
CCn1nc(C(=O)O)c(=O)c2cc3c(cc21)OCO3 [CINOXACIN]	> 20	> 20
CCNC(=O)/C=C/c1cccc(Br)c1 [CINROMIDE]	> 20	> 20
CCCCCC1C(=O)N2C=C(c3ccccc3)c3ccccc3N2C1=O (stereo not given) [CINTAZONE]	> 20	> 20
CC(C)(Oc1ccc(C2CC2(Cl)Cl)cc1)C(=O)O (stereo not given) [CIPROFIBRATE]	> 20	> 20
CN(C)[C@@H](c1cccc(O)c1)[C@H]1CCCC[C@H]1O [CIRAMADOL]	> 20	> 20
COc1cc(N)c(Cl)cc1C(=O)NC1CCN(CCCOc2ccc(F)cc2)CC1OC (stereo not given) [CISAPRIDE]	> 20	> 20
CN(C)CCCC1(c2ccc(F)cc2)OCc2cc(C#N)ccc21 (stereo not given) [CITALOPRAM]	> 20	> 20
NC(=O)C1c2ccccc2C=Cc2ccccc21 [CITENAMIDE]	> 20	> 20
N#Cc1ccc(/C=N/NC(N)=S)s1 [CITENAZONE]	> 20	> 20
CC(=O)NC1CCSC1=O (stereo not given) [CITIOLONE]	> 20	> 20
COc1cc(OC)c2ccc(=O)oc2c1 [CITROPTEN]	> 20	> 20
